{
  "source": "patent US12171766B2",
  "about": "“Methods of treating patients suffering from brain injury and methods of increasing the value of the extended Glasgow Outcome Scale of patients suffering from brain injury” (VERINOS OPERATIONS GMBH, priority 2021, dated 2024)",
  "test_system": "adult intensive care patients with acute moderate and severe TBI",
  "assay": "NOSTRA phase III trial: Extended Glasgow Outcome Scale (eGOS) at 3 and 6 months, Ronopterin 17 mg/kg infused over 48 hours vs placebo, incl. post hoc subgroup analyses",
  "format": "in vivo, human",
  "experimental": "A phase III trial of Ronopterin infusion to adult TBI patients (18-60 years) with acute moderate and severe TBI was performed. Based on the results of the earlier phase II study, the NOSTRA (NO Synthase in TRAumatic Brain Injury) phase III trial was designed to detect clinically relevant differences in clinical outcome (Extended Glasgow Outcome Score at 6 months after injury) as primary endpoint.\nNOSTRA III was a multicentre, prospective, two parallel groups, blinded, placebo-controlled, randomised phase III trial of Ronopterin infusion for 48 hours in adult intensive care patients with acute moderate and severe TBI. […] The detailed study protocol is described by Tegtmeier et al. Efficacy of Ronopterin (VAS203) in Patients with Moderate and Severe Traumatic Brain Injury (NOSTRA phase III trial): study protocol of a confirmatory, placebo-controlled, randomised, double blind, multi-centre study. Trials. 2020. A total of 224 evaluable patients with moderate and severe TBI were enrolled in 32 centres in Austria, France, Germany, Spain, and United Kingdom. The trial started on 24 Aug. 2016 with last-patient last-visit on 17 Jun. 2020.\nPatients between 18 and 60 years of age with Glasgow Coma Score≥3 requiring intracranial pressure (ICP) monitoring were enrolled. Other inclusion criteria were TBI within the last 18 hours but at least 6 hours after the injury, which were expected to survive more than 24 hours after admission.\nRonopterin and placebo (0.9% saline) were infused continuously via central venous catheter at a constant rate. A total dose of 17 mg/kg body weight of Ronopterin was infused for 48 hours (daily dose 8.5 mg/kg body weight).\nThe primary outcome was the difference between eGOS in Ronopterin and placebo treated patients at 6 months after trauma. The eGOS was determined by a face to face meeting by trained assessors.\nThe null-hypothesis of no shift across the 8 ordered categories of eGOS for the two treatment groups was tested after six months based on a proportional odds model stratified by age (18-39 years and 40-60 years). The treatment effect was estimated using ordinal Logistic regression model as the (proportional) odds ratio of Ronopterin versus Placebo. Treatment and age (18-39 years and 40-60 years) were included in the model. The proportional odds assumption was tested using a Chi-Square Score Test.\nAs secondary efficacy endpoint the eGOS at 3 months was analysed using the same statistics.\nThe main objective of the post hoc analyses was to estimate the effect size of VAS203 compared with placebo for the primary endpoint eGOS-I in the subgroups time to infusion ≤12 hours and >12 hours. Supportive analyses were conducted by age group (<40 years, ≥40 years) because age group was used as a stratification factor in the study. Comparability between treatment groups regarding demographics as well as severity and location of disease was investigated using similar methods as in the main CSR.\nThe proportions of patients per eGOS-I level at 3 months and at 6 months were calculated. For the change in eGOS-I over time, the proportion of patients with changes from 3 to 6 months were calculated by eGOS-I level, and in addition categorised as decreased (i.e. any decrease in eGOS-I level from 3 to 6 months), unchanged (i.e. no change in eGOS-I level from 3 to 6 months), and increased (i.e. any increase in eGOS-I level from 3 to 6 months).\nOrdinal logistic regression was used for the analysis of eGOS-I at 3 months and at 6 months, including treatment group and age group (<40 years, ≥40 years) as factors in the model. Estimated odds ratios for the comparison of the VAS203 and placebo groups of >1 mean that eGOS-I was higher in the VAS203 group than in the placebo group across the 8 levels, whereas odds ratios of <1 mean that eGOS-I was lower in the VAS203 group than in the placebo group. Odds ratios together with their 95% CIs were used to estimate and assess the size of the treatment effect of VAS203 compared to placebo. […]",
  "key": {"[1]": {"conditions": "female patients, ≤12 hours (FIGS. 14A-D)"}},
  "data": [
    {"smiles": "CC(O)C(O)C1CNc2nc(N)nc(N)c2N1", "note": "[Ronopterin, 4-Amino-(6R,S)-5,6,7,8-tetrahydro-L-biopterin]", "values": [
      {"measurement": "number of patients with increase in eGOS by at least 2 levels from 3 to 6 months", "setting": "age 40-60 years, all times to infusion (FIG. 8C)", "value": 10},
      {"measurement": "more patients with higher increase in eGOS over time vs placebo: significance", "setting": "age 40-60 years, all times to infusion (FIG. 8D)", "value": "not (statistically) significant"},
      {"measurement": "increase in eGOS levels from 3 to 6 months", "setting": "age 40-60 years, ≤12 hours (FIG. 9A)", "value": "up to 4 levels"},
      {"measurement": "number of patients with increase in eGOS by at least 2 levels from 3 to 6 months", "setting": "age 40-60 years, ≤12 hours (FIG. 9C)", "value": 5},
      {"measurement": "Odds ratio for increases in eGOS levels from 3 to 6 months", "setting": "age group 18-39 (<40), early infusion (≤12 hours), vs placebo", "value": 4.398},
      {"measurement": "patients with an increase in their eGOS levels (eGOS responders) vs placebo", "setting": "age ≥40 years, ≤12 hours (FIGS. 9A-D)", "value": "trend to more patients with an increase in their eGOS levels"},
      {"measurement": "increase in eGOS levels from 3 to 6 months", "setting": "all ages, >12 hours (FIG. 5E)", "value": "up to 4 levels"},
      {"measurement": "number of patients with increase in eGOS by at least 2 levels from 3 to 6 months", "setting": "all ages, early infusion ≤12 hours (FIG. 5C)", "value": 9},
      {"measurement": "number of patients with increase in eGOS by at least 2 levels from 3 to 6 months", "setting": "all ages, late infusion >12 hours (FIG. 5G)", "value": 15},
      {"measurement": "increase in eGOS levels from 3 to 6 months", "setting": "all ages, ≤12 hours (FIG. 5A)", "value": "up to 4 levels"},
      {"measurement": "increase in proportion of patients with an eGOS increase by at least 1 level compared to Placebo: significance", "setting": "all ages, ≤12 hours (FIGS. 5A-D)", "value": "significant"},
      {"measurement": "less patients with a decrease in eGOS over time vs placebo: significance", "setting": "all patients, all times to infusion", "value": "not (statistically) significant"},
      {"measurement": "increase in eGOS levels from 3 to 6 months", "setting": "all patients, all times to infusion (FIG. 4A)", "value": "up to 4 levels"},
      {"measurement": "number of patients with increase in eGOS by at least 2 levels from 3 to 6 months", "setting": "all patients, all times to infusion (FIG. 4C)", "value": 24},
      {"measurement": "more patients with higher increase in eGOS over time vs placebo: significance", "setting": "all patients, all times to infusion (FIG. 4D)", "value": "not (statistically) significant"},
      {"measurement": "overall eGOS-I rating at 6 months, Ronopterin vs placebo (primary efficacy endpoint)", "setting": "all patients, ordinal logistic regression", "value": "No difference"},
      {"measurement": "increase in eGOS levels from 3 to 6 months", "setting": "female patients, >12 hours (FIG. 14E)", "value": "up to 2 levels"},
      {"measurement": "number of patients with increase in eGOS by at least 2 levels from 3 to 6 months", "setting": "female patients, >12 hours (FIG. 14G)", "value": 2},
      {"measurement": "increase in eGOS levels from 3 to 6 months", "setting": "female patients, all times to infusion (FIG. 13A)", "value": "up to 2 levels"},
      {"measurement": "number of patients with increase in eGOS by at least 2 levels from 3 to 6 months", "setting": "female patients, all times to infusion (FIG. 13C)", "value": 2},
      {"measurement": "less female patients with higher increase in eGOS over time vs placebo: significance", "setting": "female patients, all times to infusion (FIG. 13D)", "value": "not (statistically) significant"},
      {"measurement": "increase in proportion of patients with Good Recovery (eGOS 7 and 8) from 3 to 6 months, compared to Placebo", "setting": "female patients, early infusion ≤12 hours (FIG. 18)", "value": "exceeding the proportion in Placebo-treated patients"},
      {"measurement": "increase in proportion of patients with Good Recovery (eGOS 7 and 8) from 3 to 6 months, compared to Placebo", "setting": "female patients, late infusion >12 hours (FIG. 18)", "value": "exceeding the proportion in Placebo-treated patients"},
      {"measurement": "increase in eGOS levels from 3 to 6 months", "setting": "female patients, ≤12 hours (FIG. 14A)", "value": "up to 2 levels"},
      {"measurement": "number of patients with increase in eGOS by at least 2 levels from 3 to 6 months", "setting": "female patients, ≤12 hours (FIG. 14C)", "value": 0},
      {"measurement": "Good Recovery at 3 months vs placebo", "setting": "[1]", "value": "higher Good Recovery at 3 months"},
      {"measurement": "eGOS responders vs placebo", "setting": "[1]", "value": "less female eGOS responders"},
      {"measurement": "increase in eGOS levels from 3 to 6 months", "setting": "male patients, >12 hours (FIG. 12E)", "value": "up to 4 levels"},
      {"measurement": "number of patients with increase in eGOS by at least 2 levels from 3 to 6 months", "setting": "male patients, >12 hours (FIG. 12G)", "value": 13},
      {"measurement": "increase in eGOS levels from 3 to 6 months", "setting": "male patients, all times to infusion (FIG. 11A)", "value": "up to 4 levels"},
      {"measurement": "number of patients with increase in eGOS by at least 2 levels from 3 to 6 months", "setting": "male patients, all times to infusion (FIG. 11C)", "value": 22},
      {"measurement": "more patients with higher increase in eGOS over time vs placebo: significance", "setting": "male patients, all times to infusion (FIG. 11D)", "value": "not (statistically) significant"},
      {"measurement": "patients with a decrease in eGOS over time vs placebo", "setting": "male patients, all times to infusion, p=0.04", "value": "significantly less"},
      {"measurement": "increase in proportion of patients with Good Recovery (eGOS 7 and 8) from 3 to 6 months, compared to Placebo", "setting": "male patients, early infusion ≤12 hours (FIG. 17)", "value": "exceeding the proportion in Placebo-treated patients"},
      {"measurement": "increase in proportion of patients with Good Recovery (eGOS 7 and 8) from 3 to 6 months, compared to Placebo", "setting": "male patients, late infusion >12 hours (FIG. 17)", "value": "less pronounced compared to Placebo-treated patients"},
      {"measurement": "increase in eGOS levels from 3 to 6 months", "setting": "male patients, ≤12 hours (FIG. 12A)", "value": "up to 4 levels"},
      {"measurement": "number of patients with increase in eGOS by at least 2 levels from 3 to 6 months", "setting": "male patients, ≤12 hours (FIG. 12C)", "value": 9},
      {"measurement": "increase in proportion of patients with an eGOS increase by at least 1 level compared to Placebo: significance", "setting": "male patients, ≤12 hours (FIGS. 12A-D)", "value": "significant"},
      {"measurement": "median eGOS at 6 months", "setting": "time to infusion >12 hours", "value": 5},
      {"measurement": "proportion of patients with Good Recovery (eGOS 7 and 8) at 6 months", "setting": "time to infusion >12 hours", "value": 25, "unit": "%"},
      {"measurement": "increase of proportion of patients with a Good Recovery at 6 months compared to the Placebo group", "setting": "time to infusion ≤12 hours", "value": 61, "unit": "%"},
      {"measurement": "median eGOS at 6 months", "setting": "time to infusion ≤12 hours", "value": 6},
      {"measurement": "proportion of patients with Good Recovery (eGOS 7 and 8) at 6 months", "setting": "time to infusion ≤12 hours", "value": 37, "unit": "%"},
      {"measurement": "NNT for Good Recovery (eGOS 7 and 8) at 6 months", "setting": "time to infusion ≤12 hours, vs placebo", "value": 8}
    ]}
  ]
}
